Data taken from PMC10102027, “Helquat dyes targeting G-quadruplexes as a new class of anti-HIV-1 inhibitors” (Scientific Reports, 2023).

Legend:
Assay type in all cases: cell-based
HIV-1 (NL4-3 strain) = test: CPE-based antiviral assay in HIV-1-infected MT-4 cells (XTT); details: Human immunodeficiency virus 1, NL43, MT4, 120 h, cytopathic effect-based assay, MT-4 cells infected by HIV-1 (NL4-3 strain), 5 days post-infection
Source text: Based on a facile [2 + 2 + 2]‐cycloisomerization strategy, a robust three‐step synthetic entry into a novel family of helical extended diquats (helquats) was developed. After a straightforward Knoevenagel condensation of the respective helquat parent with different aldehydes (Fig. 2A), more than 500 helquat-based compounds were synthesized and screened for anti-HIV-1 activity in an assay based on the inhibition of the virus-induced cytopathic effect in MT-4 cells, evaluated after 5 days post-infection by an XTT assay. In parallel with the screening, the XTT assay was also used to determine the cytotoxicity of all compounds (Fig. 2B; for more information on the synthesis and characterization of the compounds, see the Supplementary Information). […]
XTT screening. MT-4 cells were seeded in 80 µl of the RPMI without Phenol Red in the amount of 3x10^4 cells per well of a 96-well plate. 10 µl of tested compounds (500 µM at 5% DMSO) or controls (5% DMSO at PBS, AZT 1mM, SQV 100 µM) were added to the cells; after one-hour incubation at 37 °C, HIV-1 (NL4-3 strain) was added with MOI = 0.05 and the infected cells were cultivated for five days.
The viability of the cells was measured by the XTT cell viability and proliferation assay. Briefly, 50 µl of the XTT solution with the addition of PMS (both VWR) was added to the cultivation media and incubated in a humidified incubator maintained at 37 °C with 5% CO2 for four hours, after which absorbance at 560 nm was measured on a VICTOR plate reader (PerkinElmer). […]
For compounds selected as hits in the initial screening, the effective concentration that inhibits 50% of the viral activity (EC50) and the cytotoxic concentration that reduces the MT -4 cell viability by 50% (CC50) were determined. Viral activity was evaluated after five days as an HIV-1-induced cytopathic effect quantified by the XTT assay. Selected hits were tested at two-fold serial dilutions from 50 µM concentration, and the drug concentrations required to reduce the viral cytopathic effect by 50% (EC 50) as well as the drug concentrations that reduced MT-4 cell viability by 50% (CC50) were calculated by nonlinear regression using GraphPad Prism v.8.0.0 (GraphPad Software).

HIV-1 [1] = test: Adsorption assay (RT activity in supernatant); details: 10 µM, compound and virions added to MT-4 cells simultaneously, washed out after 2 h, RT activity 5 days after infection
Experimental: (§1) To address virion binding and entry in a competitive setting, we performed an adsorption assay where test compounds and virions were added to MT-4 cells simultaneously and were washed out after 2 h of incubation. In parallel, we performed a replication assay where MT-4 cells were infected with HIV-1 and the tested compounds were added 1 h later. In both cases, the infection was evaluated by measuring reverse transcriptase activity in a cell-free supernatant 5 days after the infection (Fig. 3). As controls, PBS (phosphate-buffered saline) and inhibitors of different HIV-1 life-cycle steps were used: AMD (AMD3100), an inhibitor of gp120 attachment to CXCR4 receptors of the target cell, thus preventing HIV-1 adsorption and entry; AZT (azidothymidine), an inhibitor of reverse transcriptase; and RAL (raltegravir), an integrase inhibitor.
(§2) MT-4 cells were seeded in 80 µl of the Roswell Park Memorial Institute (RPMI) medium in the amount of 2 × 10^5 cells per well of a 96-well plate, and 10 µl of the virus stock were immediately added with the final multiplicity of infection (MOI) of 0.05. For a replication assay, the infected cells were incubated at 37 °C for 1 h before the addition of compounds being tested (10 µM final concentration) and subsequently cultivated at 37 °C for another 5 days. For an adsorption test, by contrast, the compounds (10 µM final concentration) were added simultaneously with the virus, and after 2 h of incubation, the cells were washed three times with PBS to remove the compounds and unbound virions; after the addition of 100 µl of the RPMI medium, the cells were cultivated at 37 °C for 5 days. Five days post-infection, aliquots of virus-containing cell-free supernatants were harvested and analysed by reverse transcriptase (RT) assay (described in the Supplementary Information). The experiments were performed as biological replicates where the sample size for each condition was n = 3.
(§3) RT assay. The reverse transcriptase (RT) activity in a cell-free supernatant was assessed by an α-32P RT assay. Briefly, the RT activity in the culture medium, which corresponded to the amount of HIV-1, was used to produce a DNA copy of an RNA template by extending a complementary oligo dT DNA primer with radiolabelled nucleotides. A reaction mixture containing 50 mM Tris-HCl pH 7.8, 75 mM KCl, 2 mM DTT, 5 mM MgCl2 and 0.5% NP-40 (all Sigma-Aldrich), 5 µg per ml of poly (rA)-poly (dT) (The Midlan Certified Reagent Company) with 1 µl 10-mCi/ml [α-32P]dTTP (American Radiolabeled Chemicals) per ml, and the tested sample was incubated at 37°C for two hours, after which 10 µl were spotted on DEAE blotting paper (PerkinElmer) and air-dried. After five washes with SSC buffer (0.15 M NaCl, 0.015 M sodium citrate) and three additional washes with 85% ethanol, the blotting paper was exposed to Phosphoscreen overnight, which was scanned on a Typhoon 9410 Phosphorimager instrument (GE Healthcare). The intensity of the dots was analysed by the ImageQuant software (GE Healthcare).

HIV-1 [2] = test: Replication assay (RT activity in supernatant); details: 10 µM, compound added 1 h after infection of MT-4 cells, RT activity 5 days after infection
Experimental: as §1, §2, §3

NL4-3 HIV-1 = test: Modified time-of-addition assay; details: 10 μM, MT-4 cells, RT activity 31 h post-infection; for activity by time of addition: added 2-24 h post-infection
Experimental: There are indications that G4s in the HIV-1 promoter might play roles in both RNA and DNA forms. G4s present in the LTR region of HIV-1 genomic RNA could influence reverse transcription. By contrast, G4s in the promoter region of the integrated HIV-1 provirus might regulate the transcription of viral genome and of viral mRNAs and thus the expression of viral proteins and the production of new virions - both the later stages of the HIV-1 life cycle. A modified time-of-addition assay was performed with an emphasis on the later stages of the HIV-1 life cycle, such as reverse transcription, integration and provirus expression. The tested compounds were added at several time points, but the initial time point was 2 h post-infection to eliminate their virucidal/adsorption/entry effects. Several inhibitors of the individual steps of the HIV-1 life cycle were used as controls to resolve the post-entry steps of the HIV-1 life cycle. MT-4 cells were infected with NL4-3 HIV-1 and the infection was allowed to proceed for 1 h. Subsequently, the unbound virions were washed out, and the cells were resuspended in fresh media. The compounds were first added 2 h after the infection. The culture media were harvested 31 h later and the number of released virions was monitored through the activity of reverse transcriptase in the culture media (Fig. 4).
MT-4 cells were infected with NL4-3 HIV-1 at a MOI of 1. After 1 h, the cells were washed, seeded (100,000 cells/well) and incubated at 37 °C. […] HIV-1 production was determined 31 h post-infection by measuring RT activity in the supernatant.
as §3

Row | Structure (SMILES) | EC50 (HIV-1 (NL4-3 strain)) [nM] | effect on virus adsorption (HIV-1 [1]) | effect on viral replication (HIV-1 [2]) | latest time of administration post-infection with retained antiviral activity (NL4-3 HIV-1) | activity by time of addition (NL4-3 HIV-1)
1 | Cn1cc(/C=C/c2cc(/C=C/c3cn(C)c4ccccc34)[n+]3c(c2)-c2c(ccc4c2-c2cccc[n+]2CCC4)CCC3)c2ccccc21 [Compound 12] | 2680 | minimal or no effect on virus adsorption | significantly impairing viral replication | up to 8 h | preserved their activity at later time points
2 | C(=C\c1cc(/C=C/c2ccc3c(c2)CCO3)[n+]2c(c1)-c1c(ccc3c1-c1cccc[n+]1CCC3)CCC2)/c1ccc2c(c1)CCO2 [Compound 14] | 2700 | minimal or no effect on virus adsorption | significantly impairing viral replication | up to 8 h | preserved their activity at later time points
3 | COc1ccc2ccccc2c1/C=C/c1cc[n+]2c(c1)-c1c(c(C)c(C)c3c1-c1cc(/C=C/c4c(OC)ccc5ccccc45)cc[n+]1CC3)CC2 [Compound 15] | 2740 | minimal or no effect on virus adsorption | significantly impairing viral replication | ≤ 5 h | mainly manifested when these compounds are administered before or early during reverse transcription
